Data on five molecules can be found in patent US20110251135A1, “INHIBITORS OF PERITONEAL SEEDING OF CANCER CELLS” (University of Utah Research Foundation, priority 2008, published 2011).

Entries after “also recorded” stand apart in the source; their conditions may differ. Where a SMILES comes first, the peptide text is derived from it. The star is where a group is joined. Cbz = O=C(OCc1ccccc1)*

Data set [1] relates to colon and pancreatic cancer cells. Briefly: Apoptosis of colon and pancreatic cancer cells during readhesion. Type of data set: cell-based, human.
In a further data set the test system is Su.86 cells. Briefly: Cell survival and readhesion assay (crystal violet). Type of data set: cell-based, human. The note with it: Su.86 (lack PPARγ); 30 μM GW 9662. An excerpt:
(§1) Untreated adherent monolayers (Control) and Jurkat cells treated with TNFα (Jurkat Control) served as controls. The cells were collected and analyzed for NF-κB activation in an ELISA (see Methods). […] The floating and readherent cells were collected and lysed. Aliquots of the cell lysates were used to generate cleaved PARP immunoblots. All lanes contain equal total protein concentrations and the actin blot served as a loading control. The blots shown are typical of duplicate experiments. […] The floating cells were washed away and the adherent cells were then fixed and stained with crystal violet. The cells were lysed in deoxycholate and the intensity of the staining quantified by spectrophotometry. The results are normalized to the controls.
(§2) FIGS. 13A-B show transiently suspended Su.86 (PPARγ-negative) and HT-29 (PPARγ-positive) cancer cells were allowed to readhere in the presence of various concentrations of ciglitazone for 8 hours. The cells were also incubated with or without the irreversible PPARγ inhibitor GW9662 during readhesion. The floating cells were washed away and the adherent cells were then fixed and stained with crystal violet. The cells were lysed in deoxycholate and the intensity of the staining quantified by spectrophotometry. The results are normalized to the controls. […]

Data set [2] relates to HT-29 cells. The description is as above. Format: cell-based, human. Particulars: HT-29 (overexpress PPARγ); 30 μM GW 9662.
Text: as §1, §2

The conditions of data set [3]: humans; after a single or multiple oral doses; read-out: Cmax blood levels; cited from earlier work.
For data set [4], the system named is transiently suspended HT-29 cells. As to the kind of experiment: Apoptosis of transiently suspended cells during readhesion (annexin V assay). Type of data set: cell-based, human. Particulars: various concentrations, 4 hours; compared with BAY 11-7085. The protocol:
HT-29 cells that were either transiently suspended with trypsin-EDTA or adherent for three days, were treated at time zero with DMSO or 10-100 μM BAY 11-7085. The percent of apoptotic cells was determined using the annexin V flow cytometry assay and graphed versus the dose of BAY 11-7085. FIG. 4B are photographs showing DLD-1, FIG. 4C are photographs showing HCT-116, and FIG. 4D are photographs showing HT-29 cells that were transiently suspended in trypsin-EDTA and allowed to readhere to glass coverslips for 1-24 hours. The cells were fixed and immunostained with an NF-κB p65 subunit monoclonal antibody.
The transiently suspended cells were lysed and allowed to bind to DNA oligonucleotides, containing the NF-κB consensus binding site, that were immobilized to 96-well plates. NF-κB protein bound to the oligonucleotides was detected by an antibody to the p65 subunit that only recognized p65 that is bound to DNA. The positive control was HeLa cells that were stimulated with TNFα. A control was performed using excess free NF-κB oligonucleotides (Competitor). […] NF-κB binding activity was determined by the TransAM assay as in FIG. 5A. […] The data shown represent typical results of three separate experiments. […] An immunoblot for COX-2 was performed.
The percentage of apoptotic cells was determined using the annexin V assay. The data points represent the averages of three experiments; bars, +−.SE. E. DLD-1 and F. HT-29 cells were transduced with an adenovirus containing the IκB super-repressor construct. After 3 days, the cells were transiently suspended and allowed to readhere in the presence of subapoptotic concentrations of BAY 11-7085 or DMSO (vehicle) for 8 hours. The data are expressed as fractions of cells surviving compared with the controls (no adenovirus) and were quantitatively determined by staining the remaining adherent cells with crystal violet.
(§3) Single cell suspensions were plated at 100,000 cells per well in 24-well plates in media containing DMSO, BAY 11-7082, BAY 11-7085, or MG-132 for 8-24 hours in an incubator. Alternatively, DMSO, BAY 11-7082, BAY 11-7085, or MG-132 were added to cells that were confluent and adherent for several days. The nonadherent cells were aspirated off with the media and spun for 3 minutes at 2,000 rpm in 15 mL polypropylene tubes. The adherent cells were washed twice with PBS, dispersed in trypsin, and spun down for 3 minutes at 2,000 rpm in 15 mL polypropylene tubes. The nonadherent and adherent cells were resuspended in 1× binding buffer (10 mM HEPES/NaOH, pH 7.4, 140 mM NaCl, and 2.5 mM CaCl2) to a final concentration of 10^6 cells/mL. 100 μL of the cell solution were transferred to a 5 mL culture tube and incubated with 5 μL of annexin V-FITC-conjugated monoclonal antibody (Pharmingen) and 10 μl, of propidium iodide (from a 50 μg/mL stock solution made in PBS) in the dark at 25° C. for 15 minutes. 400 μL of binding buffer was added to each tube and the cells were analyzed by flow cytometry immediately. The percent of apoptosis was determined as the percent of annexin V-positive, propidium iodide-negative cells of the total cells counted.
Various concentrations of BAY 11-7085 were added to HT-29 cells that were transiently suspended in trypsin-PBS for approximately 15 minutes before replating. The transiently suspended cells were quickly allowed to readhere in order to prevent anoikis. Alternatively, BAY 11-7085 was added to adherent HT-29 cell monolayers.

The test system of the next data set is HCT-116 cells. Briefly: Cleaved PARP immunoblot of adherent and non-adherent cells. Particulars: 20 μM MG-132 for 24 hours. Type of data set: cell-based, human. An excerpt: FIG. 3 is a group of graphs that show NF-κB inhibitors cause apoptosis of colon cancer cells. […] The data points represent the average percent of annexin V-positive, propidium iodide-negative cells (of the total cells counted) from triplicate experiments. The error bars represent the standard error of the means. […] The results shown are a graphic representation of individual flow cytometry results expressed as the percentage of cells that were annexin V-positive of those that excluded propidium iodide. […] An immunoblot of the lysates for cleaved PARP was performed. Each lane represents equal total protein concentrations. […] The cells were allowed to adhere to plastic dishes for 1 hour after which they were washed gently in PBS and stained with crystal violet. The crystal violet stained cells were solubilized in deoxycholate and the absorbance detected in a spectrophotometer at 590 nm. The adherent cells were expressed as a fraction of the controls. Each data point represents the average of triplicate experiments and the error bars the standard errors of the means. […]
(§4) For immunodetection, the blocked blots were probed with primary antibody for 2 hours at 4° C. on a rocker. […] Alkaline phosphatase was detected by a colorimetric reaction using a BCIP (5-bromo-4-chloro-3-indolyl phosphate)/NBT (nitroblue tetrazolium) kit (Zymed).
Background: Immunoblotting shows a protein as a band on a membrane.

The subject of data set [5] is HT-29 cells. As to the kind of experiment: Cleaved PARP immunoblot of adherent and nonadherent cells. Type of data set: cell-based, human. Particulars: 20 μM MG-132 for 8 h. The protocol: The cells were washed twice in ice cold PBS and then lysed in 4° C. lysis buffer (50 mM HEPES, 150 mM NaCl, 1.5 mM MgCl2, 1 mM EGTA, 100 mM NaF, 10 mM Na2PO4, 1 mM Na3VO4, 10% glycerol, 1% TRITON™ X-100, and 1 μg/mL each of aprotinin, leupeptin, chymostatin, pepstatin) and clarified at 12,000 rpm at 4° C. for 15 minutes. The lysates were normalized for total protein concentration. Aliquots of the lysates were then mixed 1:1 in sample buffer (125 mM Tris-HCl (pH 6.8), 20% glycerol, 4% sodium dodecyl sulfate, 2% β-mercaptoethanol, 10 μg/mL bromophenol blue) and boiled for 3 minutes. The samples were loaded onto SDS-PAGE gels (7.5 or 10% acrylamide). The proteins were transferred to nitrocellulose from the gels and incubated in blocking buffer (1% bovine serum albumin (Bio-Rad), 100 mM Tris-Cl (pH 7.4), 0.9% NaCl, 0.1% Nonidet) overnight at 4° C.
as §4
It was confirmed in HT-29 cells that were treated with increasing concentrations of BAY 11-7085 for 24 h. After separating the HT-29 cells that remained adherent and those that became nonadherent after BAY 11-7085 treatment, the percentage of apoptotic cells was determined for each group. […]

The test system of a further data set is adherent HT-29 cells. As to the kind of experiment: Annexin V-FITC apoptosis assay, adherent cells. Type of data set: cell-based, human. The note with it: adherent HT-29; 24 hours; BAY compounds at doses up to 20, MG-132 20 μM.
Text: FIG. 3 is a group of graphs that show NF-κB inhibitors cause apoptosis of colon cancer cells. […] The data points represent the average percent of annexin V-positive, propidium iodide-negative cells (of the total cells counted) from triplicate experiments. The error bars represent the standard error of the means. […] The results shown are a graphic representation of individual flow cytometry results expressed as the percentage of cells that were annexin V-positive of those that excluded propidium iodide. […] An immunoblot of the lysates for cleaved PARP was performed. Each lane represents equal total protein concentrations. […] The cells were allowed to adhere to plastic dishes for 1 hour after which they were washed gently in PBS and stained with crystal violet. The crystal violet stained cells were solubilized in deoxycholate and the absorbance detected in a spectrophotometer at 590 nm. The adherent cells were expressed as a fraction of the controls. Each data point represents the average of triplicate experiments and the error bars the standard errors of the means.
The data points represent the means of triplicate experiments and the error bars the standard errors of the means. […] The percent of apoptotic cells was then determined by the annexin V assay. […] The results shown are typical of two separate experiments. […] Immunoblots were performed for c-IAP-2, TRAF-1, TRAF-2, and FLIP. All lanes contain equal total protein.
as §3

For the next data set, the system named is FLIP. As to the kind of experiment: FLIP expression in pancreatic and colon cancer cell lines. Format: cell-based, human. The note with it: anisomycin 1.5 and 4 hours. The protocol:
In order to determine the role of JNK activity in FLIP downregulation, pancreatic and colon cancer cell lines were treated with anisomycin for 1.5 and 4 hours.

A further data set deals with JNK. Briefly: JNK activity (phosphorylation of c-JUN) in colon and pancreatic cancer cell lines. Format: cell-based, human.
The next data set deals with RANK. As to the kind of experiment: NF-κB activation in colon cancer cell lines incubated with soluble RANK. Type of data set: cell-based, human. An excerpt:
Of other members of the TNF receptor superfamily, Receptor Activator of NF-κB (RANK) is highly expressed in the digestive tract. […] Thus, RANK appears to be important in the activation of NF-κB during colon cancer cell readhesion.

As to `O=C(Nc1ccccc1)c1cc([N+](=O)[O-])ccc1Cl` [GW9662], the “effect of GW9662 on the pro-apoptotic activity of pioglitazone” value in [1] (cancer cell readhesion) is recorded as “failed to inhibit the pro-apoptotic activity of pioglitazone”. The “effect of GW 9662 on the efficacy of ciglitazone” value in the data set on Su.86 cells and with HT-29 cells [2] was “did not significantly affect the efficacy of ciglitazone” throughout.

On to `CCc1ccc(CCOc2ccc(CC3SC(=O)NC3=O)cc2)nc1` (stereo not drawn) [pioglitazone], for which the Cmax in [3] was 2500 nM.

As for `CC(C)C[C@@H](C=O)NC(=O)[C@H](CC(C)C)NC(=O)[C@H](CC(C)C)NC(=O)OCc1ccccc1` [MG-132, N-[(phenylmethoxy)carbonyl]-leucyl-N-[(1S)-1-formyl-3-methylbutyl]-L-leucinamide] (Cbz-Leu-Leu-Leu-aldehyde), the “induction of apoptosis of HT-29 cells during readhesion” value in data set [4] is reported as “more potently induced apoptosis”. In addition, in the data set on HCT-116 cells, the “cleaved PARP in cells that remained adherent” value was “only a small increase in cleaved PARP” and the “cleaved PARP in non-adherent cells” value is on record as “large increase in cleaved PARP”. Moreover, in the data set on HT-29 cells [5], the “cleaved PARP in cells that remained adherent” value was “only a small increase in cleaved PARP” and the “cleaved PARP in nonadherent cells” value is given as “large increase in cleaved PARP”. Besides, in the data set on adherent HT-29 cells, the “level of apoptosis (annexin V-positive, propidium iodide-negative cells)” value was “relatively greater for MG-132 than BAY 11-7085; also recorded: caused a greater increase in apoptosis”.

Take `COc1ccc(C[C@H]2NC[C@H](O)[C@H]2OC(C)=O)cc1` [anisomycin]: in the data set with FLIP, the FLIP expression entry is given as “caused a decrease in FLIP expression”. Moreover, the “apoptosis during cell readhesion” value in data set [1] (colon and pancreatic cancer cell lines, anisomycin alone) is reported as “not as effective as BAY 11-7085, anisomycin induced apoptosis”. Further, in [1] (readhering colon and pancreatic cancer cells, anisomycin with BAY 11-7085), the “effect on pro-apoptotic activity of BAY 11-7085” value is “increased the pro-apoptotic activity of BAY 11-7085”. The “JNK activity (phosphorylation of c-JUN)” value in the data set with JNK is reported as “readily induced JNK activity”.

B1: soluble RANK: soluble Receptor Activator of NF-κB, inhibits ligand-dependent RANK activation (protein, UniProt Q9Y6Q6 30-212, looked up)
extracellular domain: IAPPCTSEKHYEHLGRCCNKCEPGKYMSSKCTTTSDSVCLPCGPDEYLDSWNEEDKCLLHKVCDTGKALVAVVAGNSTTPRRCACTAGYHWSQDCECCRRNTECAPGLGAQHPLQLNKDTVCKPCLAGYFSDAFSSTDKCRPWTNCTFLGKRVEHHGTEKSDAVCSSSLPARKPPNEPHVYLP
modifications: extracellular domain
Turning to B1, the “activation of NF-κB” value in the data set with RANK was “significantly reduced the activation of NF-κB”.

Broadly, the Cmax is the maximum level reached in the sampled fluid or tissue.
